# From ChEMBL document CHEMBL1201862, “PubChem BioAssay data set” (2004)
#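 Protocol summary: plate cells (96-well), add compound at 5 concentrations, incubate 48 h, interpolate endpoints linearly. The concentration for 50% growth inhibition is given as GI50.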 The source made the active and inactive calls. Cut-off read from the data, not from the text of the source: active = GI50 up to about 1.1 µM and inactive = higher.
# Columns and labels:
# Experiment in all cases: growth of human tumour cells (NCI), 48 h
# A498 = tested on: A498
# CCRF-CEM = tested on: CCRF-CEM
# HCT-15 = tested on: HCT-15
# HT-29 = tested on: HT-29
# K562 = tested on: K562
# LOX IMVI = tested on: LOX IMVI
# M14 = tested on: M14
# NCI-H226 = tested on: NCI-H226
# NCI-H23 = tested on: NCI-H23
# NCI-H522 = tested on: NCI-H522
# RPMI-8226 = tested on: RPMI-8226
# RXF 393 = tested on: RXF 393
# SF-295 = tested on: SF-295
# SK-MEL-28 = tested on: SK-MEL-28
# SK-MEL-5 = tested on: SK-MEL-5
# SN12C = tested on: SN12C
# SNB-75 = tested on: SNB-75
# SR = tested on: SR
SMILES,GI50 (A498),GI50 (CCRF-CEM),GI50 (HCT-15) [µM],GI50 (HT-29),GI50 (K562),GI50 (LOX IMVI),GI50 (M14),GI50 (NCI-H226),GI50 (NCI-H23),GI50 (NCI-H522),GI50 (RPMI-8226),GI50 (RXF 393),GI50 (SF-295),GI50 (SK-MEL-28),GI50 (SK-MEL-5),GI50 (SN12C),GI50 (SNB-75),GI50 (SR)
CC(=O)NNc1nc(C)c(C(/C=C/c2ccc(Cl)cc2)=N\NS(=O)(=O)c2ccc(C)cc2)s1,> 100 µM (inactive),> 100 µM (inactive),> 100,> 100 µM (inactive),> 100 µM (inactive),> 100 µM (inactive),> 100 µM (inactive),> 100 µM (inactive),> 100 µM (inactive),> 100 µM (inactive),> 100 µM (inactive),> 100 µM (inactive),> 100 µM (inactive),> 100 µM (inactive),> 100 µM (inactive),> 100 µM (inactive),> 100 µM (inactive),–
CC1=C(C(=O)O)N2C(=O)[C@@H](NC(=O)C(c3ccc(O)cc3)N3CSC(=S)N(C(C)C)C3)C2SC1 (stereo partly specified),> 100 µM (inactive),63.8 µM (inactive),> 100,> 100 µM (inactive),57.8 µM (inactive),> 100 µM (inactive),> 100 µM (inactive),–,> 100 µM (inactive),50.1 µM (inactive),> 100 µM (inactive),–,> 100 µM (inactive),> 100 µM (inactive),> 100 µM (inactive),> 100 µM (inactive),> 100 µM (inactive),–
COC(=O)CCC(NC(=S)N/N=C(\C)c1nccs1)C(=O)OC (stereo unspecified),> 100 µM (inactive),–,46.3,73.5 µM (inactive),16.2 µM (inactive),52 µM (inactive),41.8 µM (inactive),53.7 µM (inactive),> 100 µM (inactive),26.4 µM (inactive),3.23 µM (inactive),42.2 µM (inactive),87.7 µM (inactive),> 100 µM (inactive),36.4 µM (inactive),> 100 µM (inactive),68.2 µM (inactive),–
Cc1c(CCO)c(O)n2c(nc3ccccc32)c1C#N,> 100 µM (inactive),29.4 µM (inactive),45.7,44.3 µM (inactive),99.5 µM (inactive),68.7 µM (inactive),84.1 µM (inactive),98.4 µM (inactive),53.8 µM (inactive),34.7 µM (inactive),26.7 µM (inactive),> 100 µM (inactive),> 100 µM (inactive),> 100 µM (inactive),21.8 µM (inactive),–,> 100 µM (inactive),–
O=C(c1ccccc1)c1c(CC(O)c2ccccc2)n(C(=O)c2ccccc2)c2ccccc12 (stereo unspecified),–,35.8 µM (inactive),32.7,63.8 µM (inactive),27.9 µM (inactive),–,33 µM (inactive),31.6 µM (inactive),19 µM (inactive),17.5 µM (inactive),25.2 µM (inactive),–,28.8 µM (inactive),95.1 µM (inactive),29.2 µM (inactive),–,6.97 µM (inactive),16.9 µM (inactive)
CCOC(=O)CCc1c(C)c2c(OC)cc(OC)cc2oc1=O,–,–,–,91 µM (inactive),–,> 100 µM (inactive),> 100 µM (inactive),25.5 µM (inactive),> 100 µM (inactive),> 100 µM (inactive),–,33.9 µM (inactive),> 100 µM (inactive),> 100 µM (inactive),–,79.4 µM (inactive),21.5 µM (inactive),–
NC(=S)NNC(=O)CCC(=O)Nc1ccc(Cl)cc1Cl,> 100 µM (inactive),> 100 µM (inactive),50.4,> 100 µM (inactive),17.7 µM (inactive),66.8 µM (inactive),37.1 µM (inactive),> 100 µM (inactive),> 100 µM (inactive),> 100 µM (inactive),43.5 µM (inactive),> 100 µM (inactive),> 100 µM (inactive),> 100 µM (inactive),62.7 µM (inactive),> 100 µM (inactive),> 100 µM (inactive),–
